Patent US20100015111A1, “Methods And Kits For The Treatment Inhibition, And Maintenance Of Gastrointestinal Disorders” (priority 2008, published 2010)

Tested on: dextran sulfate salt (DSS) induced chronic ulcerative colitis in male Swiss-Webster mice
Test: Olsalazine on dextran sulfate salt (DSS) induced chronic ulcerative colitis in mice
Type: in vivo
Conditions: for survival to necropsy day: 3% DSS days 0-14, 15% in disease controls; for mean body weight loss at study end: 3% DSS, disease control lost 3.90 g; for colon content score (mean, scale 0-3) / mean colon length / inhibition of decreased colon length: day 14; for colon content score (mean, scale 0-3): disease control mean 2.67; for mean colon length: normal 10.60, disease control 6.33; for inhibition of decreased colon length: vs disease control
Experimental: A study was conducted to determine the effect of Olsalazine on dextran sulfate salt (DSS) induced chronic ulcerative colitis in male Swiss-Webster mice. Groups of 20 male Swiss-Webster mice were allowed ad libitum access to Olsalazine qd beginning on day −3 and then continued daily (qd) or every two days (q2d) starting on day 0 and continuing through day 14. Dipentum®, Olsalazine Sodium is a sodium salt of salicylate, disodium 3,3′-azobis(6-hydroxybenzoate) and when exposed to colonic bacteria converts to mesalamine. In this animal model, male Swiss-Webster mice are exposed to DSS (3% days 0-14) to induce inflammation and gland loss with erosion in the colon.
Dextran sulfate, molecular weight 40-50,000 (sodium salt, Spectrum Chemicals, New Brunswick, N.J., Lot#RA1107) was stored at room temperature until added to appropriate volumes of tap water to prepare sufficient 3% DSS solutions. Prepared solutions were stored at 4° C. and added to water bottles daily. Every 3rd day, water in all bottles was discarded and replaced with fresh DSS preparations or tap water (normal controls). Dipentum® (Olsalazine Sodium) was received from the sponsor in hard gelatin capsule form. Capsules were received and each capsule contained 250 mg. On study day −3, 51 capsules were opened (˜12.75 grams) and the contents of each were consolidated into a labeled vial. Appropriate amounts of the beige-orange compound was then added to 250 ml water bottles so that each bottle would contain ˜0.83 mg/ml Olsalazine suspension in the water.
• Male Swiss-Webster mice weighing approximately 22-29 grams on day (−)3 were obtained from Harlan, Inc (Indianapolis, Ind.). Animals were identified by color-coded dots at the base of the tail delineating group and animal number. After randomization, all cages were labeled with protocol number, group and animal numbers with appropriate color-coding.
Animals (5/group/normal control, 20/group for diseased treated), housed 5/cage, were given 3.0% DSS in their water from test days 0-14. Olsalazine treatment was initiated on day −3 and continued daily through day 14, or on days −3, −2, −1, 0, 2, 4, 6, 8, 10, 12, and 14 for the q2d group. Animals were terminated on day 14. • Experimental groups were as follows:
Animals were weighed on study days −3 to 14. On day 14 mice were weighed, euthanized, and the entire colon was removed and the length determined. The colons were scored for gross changes using the following criteria:
0=normal, no blood observed
2=semi-solid to fluid stool
3=semi-solid with definite evidence of blood, bloody fluid or no content
Only animals that survived to study termination were included in the analysis of terminal colon lengths and scores.
For each surviving animal, the entire colon (proximal and distal) was trimmed into 8 equally spaced pieces for processing and embedding. Sections were stained with hemotoxylin and eosin (H&E). For each colon section, submucosal edema was quantified by measuring the distance (mm) from the muscularis mucosa to the internal border of the outer muscle layer in representative areas of edema. The extent of inflammation (foamy macrophages, lymphocytes and polymorphonuclear cell infiltrate) was assigned severity scores according to the following ranking:
The parameters reflecting epithelial cell loss/damage were scored individually using a percent area involved scoring method:
Parameters that were scored using the above percent involvement scale include: • 1) Colon glandular loss—includes crypt epithelial as well as remaining gland epithelial loss. • 2) Colon erosion—reflects loss of surface epithelium and generally is associated with mucosal hemorrhage (seen clinically and at necropsy).
Mucosal epithelial hyperplasia (basophilia, mitotic figures, multi-layered on basement membranes, absence of goblet cells) was scored 0-5 based on the following criteria […]

[1] = Olsalazine ad libitum, q2d, compared to disease controls
[2] = Olsalazine ad libitum, q2d, histopathology day 14, non significant
[3] = Olsalazine ad libitum, qd, histopathology day 14
[4] = Olsalazine ad libitum, qd, histopathology day 14, non significant
[5] = Olsalazine ad libitum, qd, histopathology day 14, significant

In the case of `O=C([O-])c1cc(N=Nc2ccc(O)c(C(=O)[O-])c2)ccc1O.[Na+].[Na+]` [Olsalazine, disodium 3,3′-azobis(6-hydroxybenzoate)], the “survival to necropsy day” value (Olsalazine ad libitum in water (~0.83 mg/ml), every day (qd), day -3 to 14) was 75%, the “survival to necropsy day” value (Olsalazine ad libitum, every other day (q2d): days -3,-2,-1,0,2,...14) was 50% and the “mean body weight loss at study end” value (Olsalazine ad libitum, q2d) was 3.10 g. For the same compound, the “inhibition of mean hyperplasia score” value [1] was 11%, the “inhibition of mucosal thickness” value [1] was 17% and the “colon content score (mean, scale 0-3)” value (Olsalazine ad libitum, q2d) was 2.70. The mean colon length (Olsalazine ad libitum, q2d) was 7.1 cm, the “inhibition of decreased colon length” value (Olsalazine ad libitum, q2d) was 18% and the “inhibition of colon gland loss” value (Olsalazine ad libitum, q2d, histopathology day 14) was 32%. The “inhibition of colon edema” value [2] was 21%, the “inhibition of colon erosion” value [2] was 27% and the “inhibition of colon inflammation” value [2] was 27%. For the same compound, the “inhibition of sum colon histopathologic score” value [2] was 29%, the “mean body weight loss at study end” value (Olsalazine ad libitum, qd) was 4.78 g and the “inhibition of mean hyperplasia score” value (Olsalazine ad libitum, qd, compared to disease control) was 16%. The “colon content score (mean, scale 0-3)” value (Olsalazine ad libitum, qd) was 2.33, the mean colon length (Olsalazine ad libitum, qd) was 7.33 cm and the “inhibition of decreased colon length” value (Olsalazine ad libitum, qd) was 23%. The “inhibition of colon erosion” value [3] was 32%, the “inhibition of increase of mucosal thickness” value [3] was 32% and the “inhibition of colon edema” value [4] was 22%. For the same compound, the “inhibition of sum colon histopathologic score” value [4] was 35%, the “inhibition of colon gland loss” value [5] was 32% and the “inhibition of colon inflammation” value [5] was 33%.
